Data on 1 molecule can be found in patent publication US9547000B2, “Chromogenic absorbent material for animal litter and related chromogenic solution” (7905122 CANADA INC., priority 2012, dated 2017).

Values after ≈ are worked out from the molar mass of the structure shown.

What is called solubility is the dissolved amount per volume that the medium holds.

The series can be described thus: Solubility of TMB in different solvents. It is filed as physicochemical. The source says:
The following Table 1 presents results regarding the solubility of TMB in different solvents.

Consider `Cc1cc(-c2cc(C)c(N)c(C)c2)cc(C)c1N` [TMB, 3,3′,5,5′-tetramethylbenzidine], for which the solubility (organic solvent or mixture, solvent Dimethylsulfonamide) was determined as 1.6 mM (≈ 385 µg/mL); the solubility (organic solvent or mixture, solvent Ethyl acetate) was 10 mM (≈ 2400 µg/mL); the solubility (organic solvent or mixture, solvent Methanol) amounted to 5.2 mM (≈ 1250 µg/mL); the solubility (water, solvent Water) worked out at 0.1 mM (≈ 24 µg/mL).
